Marks after values point to notes of the source that are not given here.
Experiments:
[1] = system: 60 different ion channels and receptors of different neurotransmitters and hormones; test: Full profile of binding to an additional 60 ion channels and receptors; details: 10 μM of piromelatine; none of the 60 assays
Protocol: A full profile of binding parameters to an additional 60 different ion channels and receptors of different neurotransmitters and hormones was performed (data not shown because none of the 60 receptor assays yielded a significant (>50%) inhibition by 10 μM of piromelatine).

5-HT-6 receptor = 5-HT-6 receptor (Homo sapiens, UniProt P50406); test: 5-HT receptor binding, 5-HT-6; details: read-out: IC50 (concentration causing 50% inhibition of binding)
5-HT-1d receptor = biological target: T1, 5-HT-1d receptor (Rattus norvegicus, UniProt P28565); test: 5-HT receptor radioligand binding assay, 5-HT-1d; details: CHO cells, 3H serotonin, read-out: IC50 (concentration causing 50% inhibition of binding)
T1 construct: expressed in transfected cells; host or cells: CHO
Protocol: (§1) For receptor binding assays, stably expressing 5-HT1a, 1b, 1d and 2c receptors cells (HEK-293, rat cerebral cortex, CHO and HEK-293, respectively) were incubated with 0.3 or 1 nM of their respective radioligand (^3H—OH-DPAT, ^125I CYP, ^3H serotonin and ^3H-mesulergine) alone or in the presence of 1 nM to 10 μM of piromelatine. The bound radioligand was assessed. Non-specific binding was evaluated under the reaction contained with 8-OH-PTA, serotonin and RS-10221 (8-[5-(2,4-Dimethoxy-5-(4-trifluoromethylphenylsulphonamido)phenyl-5-oxopentyl]-1,3,8-triazaspiro[4.5]decane-2,4-dione hydrochloride).

[2] = system: patients with early symptomatic Alzheimer's disease; test: Randomized, placebo controlled study of piromelatine in patients with early symptomatic Alzheimer's disease (cNTB, ADAS-Cog14, NPI, PSQI), analysed by 2:107,510,000-107,540,000 locus polymorphism carrier status; format: in vivo, human; design: key: ns = non-significant effect; deter = deterioration compared to placebo; details: locus polymorphism carriers; 5, 20 and 50 mg daily for 26 weeks; compared to placebo
Protocol: (§2) DNA extraction and SNP genotyping were performed as follows: For 107 patients, whole blood was collected at the time of enrollment, and genomic DNA was extracted from peripheral lymphocytes using a commercial kit. Variant genotyping of a combined Whole Genome and Whole Exome sequencing, was performed. The detection of variants associated with the response of the treatment was performed through a genome wide association study (GWAS) analysis (which is a known case-control paradigm). […] The general case-control allelic test was performed through a Cochran-Armitage trend test. […] The stratification was assessed by a complete-linkage hierarchical clustering using the pairwise population concordance as a constraint. […]
(§3) To further explore the relationship between these paradoxical responses and other variables in the study, changes in ADAS-Cog14 and relationships with the other variables for the intermediate dose (20 mg) of piromelatine were analyzed (Table 2). […]
(§4) To further explore the relationship between these paradoxical responses and other variables in the study, changes in cNTB, ADAS-Cog14 and PSQI for the low dose (5 mg) of piromelatine were analyzed (Table 3). […]

[3] = system: patients with early symptomatic Alzheimer's disease; test: as above; format: in vivo, human; design: key: ns = non-significant effect; deter = deterioration; details: carriers (N = 12); 20 mg daily for 26 weeks
Protocol: as §2, §3, §4

[4] = system: patients with early symptomatic Alzheimer's disease; test: as above; format: in vivo, human; design: key to Improvement, cNTB / Improvement, PSQI: ns = non-significant effect; deter = deterioration compared to placebo
Protocol: DNA extraction and SNP genotyping were performed as follows: For 107 patients, whole blood was collected at the time of enrollment, and genomic DNA was extracted from peripheral lymphocytes using a commercial kit. Variant genotyping of a combined Whole Genome and Whole Exome sequencing, was performed. The detection of variants associated with the response of the treatment was performed through a genome wide association study (GWAS) analysis (which is a known case-control paradigm). […] The general case-control allelic test was performed through a Cochran-Armitage trend test. […] The stratification was assessed by a complete-linkage hierarchical clustering using the pairwise population concordance as a constraint. The SNP calling was done on the aligned BAM files using DRAGEN: support.illumina.com/help/DRAGEN_Germline_OLH_1000000083701/Content/Source/Informatics/Apps/DRAGENGermlineSmallVarCaller_appDRAG.htm and filter SNPs using VQSR: gatk.broadinstitute.org/hc/en-us/articles/360035531612-Variant-Quality-Score-Recalibration-VQSR.
To further explore the relationship between these paradoxical responses and other variables in the study, changes in ADAS-Cog14 and relationships with the other variables for the intermediate dose (20 mg) of piromelatine were analyzed (Table 2). […] Moreover, in this trial, 39% of patients treated with the 20 mg piromelatine that were not carriers of the 2:107,510,000-107,540,000 locus polymorphism improved (decreased)>4 points in the ADAS-Cog14 and thus were considered “responders (beneficial response)” vs. only 8% of the patients treated with the 20 mg piromelatine that were carriers of the 2:107,510,000-107,540,000 locus polymorphism (Table 2).
To further explore the relationship between these paradoxical responses and other variables in the study, changes in cNTB, ADAS-Cog14 and PSQI for the low dose (5 mg) of piromelatine were analyzed (Table 3). […] However, only carriers of a 2:107,510,000-107,540,000 locus polymorphism improved on the computerized Neuropsychological Test Battery (cNTB) upon treatment with the 5 mg piromelatine dose and the main performance domains being the episodic memory domain composite score and attention domain composite score.

5-HT1b = 5-HT1b (Homo sapiens, UniProt P28222); test: Functional assay (cellular dielectric spectroscopy, impedance), 5-HT1b; format: cell-based
Description: (§5) For the functional assay, Homogeneous Time Resolved Fluorescence (HTRF) was used to measure cAMP or IP1 as products of the functional agonist or antagonist binding of 5-HT1a, 2a,2b, 2c, 4e, 6, 7 to their respective ligand (8-OG-DPAT or serotonin). Cellular dielectric spectroscopy was used to measure impedance as the product of the functional agonist or antagonist binding of 5HT1b and determine their respective ligand (serotonin).

5-HT-4 receptor = 5-HT-4 receptor (Homo sapiens, UniProt Q13639); test: 5-HT receptor binding, 5-HT-4; details: read-out: IC50 (concentration causing 50% inhibition of binding)
5-HT1d = 5-HT1d (Homo sapiens, UniProt P28221); test: Functional assay, 5-HT1d; format: cell-based
Description: [Worded in the source for another target; this target is reported under the same test.] as §5

5HT1a [5] = biological target: T2, 5HT1a (Homo sapiens, UniProt P08908); test: 5-HT receptor radioligand binding assay, 5-HT-1a; design: expressed in transfected cells; host or cells: HEK-293; details: HEK-293 cells, 3H-OH-DPAT, read-out: IC50 (concentration causing 50% inhibition of binding)
T2 sequence (P08908 1-422): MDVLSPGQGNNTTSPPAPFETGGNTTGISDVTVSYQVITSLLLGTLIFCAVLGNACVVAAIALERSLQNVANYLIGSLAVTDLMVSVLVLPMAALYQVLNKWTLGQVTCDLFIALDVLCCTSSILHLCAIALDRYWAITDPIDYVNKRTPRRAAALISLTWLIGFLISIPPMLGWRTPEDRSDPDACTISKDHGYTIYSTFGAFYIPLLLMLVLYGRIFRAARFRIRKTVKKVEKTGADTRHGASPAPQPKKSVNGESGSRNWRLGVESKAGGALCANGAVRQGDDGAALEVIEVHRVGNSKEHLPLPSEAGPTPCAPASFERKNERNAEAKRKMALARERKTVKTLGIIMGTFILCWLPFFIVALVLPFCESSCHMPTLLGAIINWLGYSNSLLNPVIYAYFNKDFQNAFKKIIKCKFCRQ
Protocol: as §1

5HT1a [6] = biological target: T2, 5HT1a; test: Functional assay (HTRF, cAMP or IP1), 5HT1a; format: cell-based
Description: as §5

5-HT-2c receptor = biological target: T3, 5-HT-2c receptor (Homo sapiens, UniProt P28335); test: 5-HT receptor radioligand binding assay, 5-HT-2c; details: HEK-293 cells, 3H-mesulergine, read-out: IC50 (concentration causing 50% inhibition of binding)
T3 construct: expressed in transfected cells; host or cells: HEK-293
T3 sequence (P28335 33-458): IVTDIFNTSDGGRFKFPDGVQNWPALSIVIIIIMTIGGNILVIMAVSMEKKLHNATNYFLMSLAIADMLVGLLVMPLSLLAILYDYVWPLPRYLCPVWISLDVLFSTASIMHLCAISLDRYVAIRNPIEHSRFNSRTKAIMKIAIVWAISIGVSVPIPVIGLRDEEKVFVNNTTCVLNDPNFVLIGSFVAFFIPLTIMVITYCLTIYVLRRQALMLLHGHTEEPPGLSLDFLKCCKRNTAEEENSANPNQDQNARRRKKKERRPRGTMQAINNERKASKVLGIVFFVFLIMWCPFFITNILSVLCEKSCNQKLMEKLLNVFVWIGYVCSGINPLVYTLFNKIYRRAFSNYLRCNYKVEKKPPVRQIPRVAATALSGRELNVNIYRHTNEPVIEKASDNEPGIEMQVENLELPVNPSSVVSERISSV
Protocol: as §1

5-HT-7 receptor = 5-HT-7 receptor (Homo sapiens, UniProt P34969); test: 5-HT receptor binding, 5-HT-7; details: read-out: IC50 (concentration causing 50% inhibition of binding)
5-HT-1b receptor = biological target: T4, 5-HT-1b receptor (Rattus norvegicus, UniProt P28564); test: 5-HT receptor radioligand binding assay, 5-HT-1b; details: rat cerebral cortex, 125I CYP, read-out: IC50 (concentration causing 50% inhibition of binding)
T4 construct: stably expressing 5-HT1a, 1b, 1d and 2c receptors cells (HEK-293, rat cerebral cortex, CHO and HEK-293, respectively); from tissue; host or cells: rat cerebral cortex
Protocol: as §1

5-HT-2a receptor = 5-HT-2a receptor (Homo sapiens, UniProt P28223); test: 5-HT receptor binding, 5-HT-2a; details: read-out: IC50 (concentration causing 50% inhibition of binding)
[7] = carriers (N = 12), 20 mg daily for 26 weeks
[8] = carriers, 5 mg daily for 26 weeks
[9] = carriers, 5 mg daily for 26 weeks (N = 5)
[10] = locus polymorphism carriers, 5, 20 and 50 mg daily for 26 weeks, N = 19
[11] = locus polymorphism non-carriers, 5, 20 and 50 mg daily for 26 weeks, N = 59
[12] = locus polymorphism non-carriers, 5, 20 and 50 mg daily for 26 weeks, compared to placebo
[13] = non-carriers (N = 23), 20 mg daily for 26 weeks
[14] = non-carriers, 5 mg daily for 26 weeks
[15] = non-carriers, 5 mg daily for 26 weeks (N = 19)
[16] = whole study population n=352, 5, 20 and 50 mg daily for 6 months

Sequence of 5-HT1d (P28221 whole entry, species assumed): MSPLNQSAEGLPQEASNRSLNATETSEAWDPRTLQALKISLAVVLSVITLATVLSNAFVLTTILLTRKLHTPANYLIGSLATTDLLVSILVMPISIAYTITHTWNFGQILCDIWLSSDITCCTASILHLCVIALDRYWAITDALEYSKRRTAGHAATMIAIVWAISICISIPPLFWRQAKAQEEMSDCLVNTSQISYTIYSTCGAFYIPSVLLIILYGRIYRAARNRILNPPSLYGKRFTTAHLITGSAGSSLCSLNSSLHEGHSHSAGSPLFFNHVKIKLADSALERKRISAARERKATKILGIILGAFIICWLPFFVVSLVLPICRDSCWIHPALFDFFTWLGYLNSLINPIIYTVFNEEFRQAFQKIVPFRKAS
Sequence of 5-HT1b (P28222 whole entry, species assumed): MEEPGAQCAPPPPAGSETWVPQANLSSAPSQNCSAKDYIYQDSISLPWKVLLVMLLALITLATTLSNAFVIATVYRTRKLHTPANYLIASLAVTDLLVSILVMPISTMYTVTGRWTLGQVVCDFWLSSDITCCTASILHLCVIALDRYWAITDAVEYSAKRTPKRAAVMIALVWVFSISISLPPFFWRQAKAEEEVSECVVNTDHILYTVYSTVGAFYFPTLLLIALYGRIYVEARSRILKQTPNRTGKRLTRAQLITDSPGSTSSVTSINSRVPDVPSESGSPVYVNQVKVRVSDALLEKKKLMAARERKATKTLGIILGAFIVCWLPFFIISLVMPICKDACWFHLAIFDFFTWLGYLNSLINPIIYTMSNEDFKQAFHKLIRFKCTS
T4 sequence (P28564 whole entry): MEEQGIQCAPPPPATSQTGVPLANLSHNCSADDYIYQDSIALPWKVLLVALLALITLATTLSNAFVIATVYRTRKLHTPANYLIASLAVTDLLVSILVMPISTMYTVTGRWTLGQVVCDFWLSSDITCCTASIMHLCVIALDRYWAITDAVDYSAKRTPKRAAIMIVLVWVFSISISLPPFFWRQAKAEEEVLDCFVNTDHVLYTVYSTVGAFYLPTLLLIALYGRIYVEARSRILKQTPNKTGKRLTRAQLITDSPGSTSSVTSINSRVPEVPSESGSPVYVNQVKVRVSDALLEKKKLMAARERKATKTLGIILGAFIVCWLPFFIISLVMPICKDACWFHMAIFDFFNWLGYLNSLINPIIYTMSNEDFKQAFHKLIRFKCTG
T1 sequence (P28565 whole entry): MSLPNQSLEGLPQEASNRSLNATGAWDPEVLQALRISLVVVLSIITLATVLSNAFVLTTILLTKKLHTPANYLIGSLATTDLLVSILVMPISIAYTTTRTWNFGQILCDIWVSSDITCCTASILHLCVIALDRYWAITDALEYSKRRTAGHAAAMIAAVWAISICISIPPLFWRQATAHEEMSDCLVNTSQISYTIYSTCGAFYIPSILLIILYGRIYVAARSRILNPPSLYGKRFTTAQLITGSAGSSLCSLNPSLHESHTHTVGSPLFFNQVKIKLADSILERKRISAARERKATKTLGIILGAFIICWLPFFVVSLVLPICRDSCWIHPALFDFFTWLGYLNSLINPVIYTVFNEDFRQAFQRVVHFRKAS
Sequence of 5-HT-4 receptor (Q13639 whole entry): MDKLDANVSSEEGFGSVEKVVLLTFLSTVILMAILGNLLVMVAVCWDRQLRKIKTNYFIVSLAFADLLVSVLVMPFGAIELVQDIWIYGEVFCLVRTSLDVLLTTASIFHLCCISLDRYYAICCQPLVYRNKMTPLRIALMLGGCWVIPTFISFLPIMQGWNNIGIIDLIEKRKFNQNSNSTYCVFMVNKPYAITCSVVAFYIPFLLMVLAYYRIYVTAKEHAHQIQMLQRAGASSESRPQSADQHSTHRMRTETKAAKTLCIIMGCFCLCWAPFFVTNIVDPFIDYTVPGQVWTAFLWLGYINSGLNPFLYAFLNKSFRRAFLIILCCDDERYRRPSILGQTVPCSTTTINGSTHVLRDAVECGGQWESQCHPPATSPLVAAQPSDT
Sequence of 5-HT-7 receptor (P34969 whole entry): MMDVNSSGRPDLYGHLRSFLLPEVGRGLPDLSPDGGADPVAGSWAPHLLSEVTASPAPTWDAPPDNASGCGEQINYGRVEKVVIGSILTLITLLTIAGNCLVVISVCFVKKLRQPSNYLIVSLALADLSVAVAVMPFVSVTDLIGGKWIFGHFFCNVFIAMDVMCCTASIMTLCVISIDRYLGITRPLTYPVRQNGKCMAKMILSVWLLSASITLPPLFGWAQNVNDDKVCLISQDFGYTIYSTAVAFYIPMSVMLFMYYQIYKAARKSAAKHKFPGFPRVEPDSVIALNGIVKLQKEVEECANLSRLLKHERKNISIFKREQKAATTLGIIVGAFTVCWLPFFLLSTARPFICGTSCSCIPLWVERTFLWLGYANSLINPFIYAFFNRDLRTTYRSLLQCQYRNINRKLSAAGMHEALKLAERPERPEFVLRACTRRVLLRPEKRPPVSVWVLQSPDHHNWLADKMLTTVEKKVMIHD
Sequence of 5-HT-2a receptor (P28223 whole entry): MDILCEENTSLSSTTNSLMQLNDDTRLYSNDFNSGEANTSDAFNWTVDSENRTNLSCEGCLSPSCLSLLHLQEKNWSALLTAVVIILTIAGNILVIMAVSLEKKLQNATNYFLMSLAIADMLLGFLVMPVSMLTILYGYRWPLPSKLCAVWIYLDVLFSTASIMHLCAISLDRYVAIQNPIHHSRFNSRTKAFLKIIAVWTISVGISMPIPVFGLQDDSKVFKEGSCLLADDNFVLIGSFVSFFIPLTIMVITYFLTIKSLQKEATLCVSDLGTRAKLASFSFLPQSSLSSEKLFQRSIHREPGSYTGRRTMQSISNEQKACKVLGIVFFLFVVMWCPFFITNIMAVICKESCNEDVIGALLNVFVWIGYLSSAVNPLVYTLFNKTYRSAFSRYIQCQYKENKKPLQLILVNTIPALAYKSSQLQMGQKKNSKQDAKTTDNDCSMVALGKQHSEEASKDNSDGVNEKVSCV
Sequence of 5-HT-6 receptor (P50406 whole entry): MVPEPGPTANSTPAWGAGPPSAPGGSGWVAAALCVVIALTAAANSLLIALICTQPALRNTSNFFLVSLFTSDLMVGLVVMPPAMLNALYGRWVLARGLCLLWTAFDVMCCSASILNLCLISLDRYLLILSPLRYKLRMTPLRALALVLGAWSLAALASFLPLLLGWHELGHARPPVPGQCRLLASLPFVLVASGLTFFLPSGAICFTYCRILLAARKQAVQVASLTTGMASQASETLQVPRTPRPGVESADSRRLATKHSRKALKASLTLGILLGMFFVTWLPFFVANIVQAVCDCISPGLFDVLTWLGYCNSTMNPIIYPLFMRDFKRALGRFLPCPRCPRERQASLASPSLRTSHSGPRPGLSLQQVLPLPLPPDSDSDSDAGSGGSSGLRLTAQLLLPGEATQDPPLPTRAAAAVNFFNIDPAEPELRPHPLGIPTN

inhibition in the 60 receptor assays [1]: ≤ 50% | IC50 (5-HT-6 receptor): > 10 µM | IC50 (5-HT-1d receptor): 0.46 µM | agonist activity in the functional assay (5-HT1b): Low agonist activity | IC50 (5-HT-4 receptor): > 10 µM | agonist activity in the functional assay (5-HT1d): moderate agonist activity | IC50 (5HT1a [5]): 0.6 µM | agonist activity in the functional assay (5HT1a [6]): moderate agonist activity | IC50 (5-HT-2c receptor): 2.8 µM | IC50 (5-HT-7 receptor): > 10 µM | IC50 (5-HT-1b receptor): 8 µM | IC50 (5-HT-2a receptor): > 10 µM
SMILES: COc1ccc2[nH]cc(CCNC(=O)c3cc(=O)cco3)c2c1 [piromelatine, N-(2-(5-methoxy-1H-indol-3-yl)ethyl)-4-oxo-4H-pyran-2-carboxamide]
Improvement, ADAS-Cog14 [2]: deter | Improvement, ADAS-Cog14 [3]: deter | ADAS-Cog14 % Responders (decrease ≥ 4) [4, 7]: 8% | ADAS-Cog14 Change from baseline [4, 7]: 3.58 | Improvement, NPI [4, 7]: yes | Improvement, PSQI [4, 7]: ns | Improvement, cNTB [4, 7]: yes | NPI Change from baseline [4, 7]: −3.08 | PSQI Change from baseline [4, 7]: −0.17 | cNTB Change from baseline [4, 7]: 0.44 | ADAS Cogl4, Cohen's d vs placebo > 0.2 [4, 8]: improvement | PSQI, Cohen's d vs placebo > 0.2 [4, 8]: no improvement | cNTB, Cohen's d vs placebo > 0.2 [4, 8]: improvement | ADAS Cogl4 Change from Baseline [4, 9]: −6.40 | PSQI Change from baseline [4, 9]: −3.40 | cNTB Change from baseline [4, 9]: 0.28 | cNTB attention domain composite score ([4]; carriers, 20 mg dose): improved | cNTB episodic memory domain composite score ([4]; carriers, 20 mg dose): improved | ADAS-Cog14 Change from baseline [4, 10]: 0.63* | cNTB Change from baseline [4, 10]: 0.38* | Improvement, cNTB ([4]; locus polymorphism carriers, 5, 20 and 50 mg daily for 26 weeks, compared to placebo): yes | ADAS-Cog14 Change from baseline [4, 11]: −1.07* | cNTB Change from baseline [4, 11]: −0.04 | Improvement, ADAS-Cog14 [4, 12]: yes | Improvement, cNTB [4, 12]: ns | ADAS-Cog14 % Responders (decrease ≥ 4) [4, 13]: 39% | ADAS-Cog14 Change from baseline [4, 13]: −2.91 | Improvement, ADAS-Cog14 [4, 13]: yes | Improvement, NPI [4, 13]: yes | Improvement, PSQI [4, 13]: yes | Improvement, cNTB [4, 13]: ns | NPI Change from baseline [4, 13]: −2.70 | PSQI Change from baseline [4, 13]: −2.13 | cNTB Change from baseline [4, 13]: −0.06 | ADAS Cogl4, Cohen's d vs placebo > 0.20 [4, 14]: no improvement | PSQI, Cohen's d vs placebo > 0.20 [4, 14]: improvement | cNTB, Cohen's d vs placebo > 0.20 [4, 14]: deterioration | ADAS Cogl4 Change from Baseline [4, 15]: 1.11 | PSQI Change from baseline [4, 15]: −1.11 | cNTB Change from baseline [4, 15]: −0.21 | ADAS-Cog14, drug vs placebo [4, 16]: no statistically significant differences | global composite score of the cNTB, drug vs placebo [4, 16]: no statistically significant differences

From patent US11807907B2, “Method for diagnosing and treating subjects having single nucleotide polymorphisms in chromosome 2, 2:107,510,000-107,540,000 locus” (NEURIM PHARMACEUTICALS (1991) LTD., priority 2021, dated 2023)
